Laboratory results: ChEMBL document CHEMBL1201862, “PubChem BioAssay data set” (2004)
Calls of active or inactive are those of the source.

What was measured:
Vero [1] = assay: cells; assay type: functional, cell-based; conditions: Chlorocebus sabaeus
[2] = cytotoxicity toward DRD oncogenic fibroblasts, dose response, cell-based, non-viral oncogenic, luminescence (AID 1934); assay type: functional; conditions: Homo sapiens
INS1 = assay: beta cell apoptosis inhibitors, cytokine rescue, dose response, luminescence, retest (AID 449756); assay type: functional, cell-based; conditions: Rattus norvegicus, INS1;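 further: cell death triggered by IL-1 beta plus TNF-alpha plus IFN-gamma mixture; protective hits raise ATP signal compared with cytokine alone wells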
BJ [3] = assay: cytotoxicity toward Ras-transformed BJeLR fibroblasts, dose response, cell-based, alamar blue fluorescence, cherrypicked samples (AID 2631); assay type: functional; conditions: Homo sapiens;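 further: confirmatory dose-response assay in RAS-dependent BJ fibroblasts engineered with TERT, LT and ST, with cytotoxicity read by fluorescence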
[4] = HEK293T cell cytotoxicity, dose response, cytotoxicity control for HIV Vif inhibitor project, cherry-picks (AID 652208); assay type: functional, cell-based
[5] = cytotoxicity in OVCAR4 cells, dose response, cytotoxicity control for PAX8 inhibitor project, cell-based, plate reader, dry powder, SA11 (AID 743150); assay type: functional; conditions: OVCAR-4
[6] = A2780 ovarian cancer cell cytotoxicity, dose response, cytotoxicity control, plate reader, dry powder samples (AID 743046); assay type: functional, cell-based
[7] = inhibitors of firefly luciferase expression or activity, dose response, H4 neuroglioma cells, luminescence (AID 1990); assay type: functional, cell-based
[8] = PAX5 activity inhibitors, dose response, selectivity assay for PAX8 inhibitor project, cell-based, plate reader, dry powder samples (AID 743047); assay type: functional;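 further: HEK293 cells carrying a Pax5 driven CD19 promoter luciferase reporter; potency of inhibitors that lower reporter luminescence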
[9] = NIH:OVCAR-3 ovarian cancer cell cytotoxicity, dose response, PAX8 inhibitor project, plate reader, dry powder samples (AID 743044); assay type: functional, cell-based
[10] = biological target: Protein disulfide-isomerase (Homo sapiens, UniProt P07237); assay: PDI inhibitors, insulin aggregation turbidity, dose response, biochemical, absorbance, cherry-picked samples (AID 602350); assay type: functional
[11] = inhibitors of SNCA 5'UTR-driven reporter translation, confirmation, H4 neuroglioma cells, luminescence (AID 1988); assay type: functional, cell-based
[12] = Luminescence Cell-Based Dose Response HTS to Identify Inhibitors of 5'UTR Stem-Loop Driven Prion Protein mRNA Translation in H4 Neuroglioblastoma Cells. [Related pubchem assays: 1827 (Project Summary), 1813 (Primary HTS)]; assay type: functional
Vero [13] = assay: cells; assay type: functional; conditions: Chlorocebus sabaeus
[14] = PAX2 cell-based inhibition, dose response, selectivity assay for PAX8 inhibitor project, plate reader, dry powder samples (AID 743048); assay type: functional;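 further: HEK293 cells carrying a WT1 promoter luciferase reporter driven by expressed Pax2; potency is for inhibition of Pax2 driven reporter signal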
[15] = cytotoxicity in COV362 ovarian cancer cells, dose response, cytotoxicity control for PAX8 inhibitor project, cell-based, plate reader, dry powder, SA12 (AID 743144); assay type: functional
[16] = cytotoxicity in COV434 cells, dose response, cytotoxicity control for PAX8 inhibitor project, cell-based, plate reader, dry powder, SA7 (AID 743145); assay type: functional
BJ [17] = assay: cytotoxicity toward BJ-TERT fibroblasts, dose response, cell-based, RAS-independent, luminescence (AID 1933); assay type: functional; conditions: Homo sapiens
[18] = biological target: T1, Heat shock factor protein 1 (Mus musculus, UniProt P38532); assay: HSF1 potentiators in luciferase reporter cells, confirmation, cell-based, NIH3T3, luminescence, dose retest (AID 435004); assay type: functional;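 further: stress induced by proteasome inhibitor MG132 added 30 min after compound; luciferase reporter driven by HSF1 response element in NIH3T3 cells; actives raise luminescence as potentiators of the MG132 stress response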
T1 sequence (P38532 whole entry): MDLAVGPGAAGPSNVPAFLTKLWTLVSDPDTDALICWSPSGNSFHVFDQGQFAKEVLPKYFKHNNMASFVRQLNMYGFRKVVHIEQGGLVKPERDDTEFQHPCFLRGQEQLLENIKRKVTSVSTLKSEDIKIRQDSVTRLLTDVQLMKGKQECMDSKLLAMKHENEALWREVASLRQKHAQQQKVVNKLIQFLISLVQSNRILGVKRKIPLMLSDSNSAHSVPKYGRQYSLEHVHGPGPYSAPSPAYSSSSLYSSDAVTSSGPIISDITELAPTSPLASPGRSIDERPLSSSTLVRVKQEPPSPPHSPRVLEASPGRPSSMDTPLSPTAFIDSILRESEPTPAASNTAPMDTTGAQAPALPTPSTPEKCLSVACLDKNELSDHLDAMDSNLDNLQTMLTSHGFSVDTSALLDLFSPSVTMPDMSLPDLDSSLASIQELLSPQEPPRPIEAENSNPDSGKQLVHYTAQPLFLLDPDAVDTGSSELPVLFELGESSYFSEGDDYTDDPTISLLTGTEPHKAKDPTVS

[19] = cytotoxicity in OV-90 ovarian cancer cells, dose response, PAX8 inhibitor project, cell-based, plate reader, dry powder, SA8 (AID 743149); assay type: functional
BJ [20] = assay: cells; assay type: functional, cell-based; conditions: Homo sapiens
[21] = IGROV1 ovarian cancer cell cytotoxicity, dose response, PAX8 inhibitor project, plate reader, dry powder samples (AID 743043); assay type: functional, cell-based; conditions: IGROV-1
BJ [22] = assay: cytotoxicity toward BJ-TERT-LT-ST fibroblasts, dose response, cell-based, RAS-independent, luminescence (AID 1935); assay type: functional; conditions: Homo sapiens;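 further: BJ fibroblasts immortalized with TERT plus LT and ST oncogenes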
[23] = Fluorescence-based cell-based high throughput dose response assay for inhibitors of the interaction of nucleotide-binding oligomerization domain containing 2 (NOD2) and the receptor-interacting serine-threonine kinase 2 (RIPK2).; assay type: functional; conditions: Homo sapiens
[24] = IOSE-T80 ovarian epithelial cell cytotoxicity, dose response, cytotoxicity control for PAX8 inhibitor project, plate reader, dry powder samples (AID 743045); assay type: functional, cell-based
[25] = cytotoxicity dependent on PAX8, dose response, cell-based, plate reader, dry powder (AID 743049); assay type: functional
Paired box protein Pax-8 = Paired box protein Pax-8 (Homo sapiens, UniProt Q06710); assay: inhibitors of PAX8-driven TPO luciferase reporter, dose response, RMG-I cells, cherry-pick (AID 687027); assay type: functional, cell-based;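 further: luciferase reporter driven by Pax8 target thyroperoxidase promoter measured by SteadyGlo luminescence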
[26] = biological target: Multidrug resistance protein CDR1 (Candida albicans, UniProt P43071); assay: CaCDR1 efflux pump inhibitors in yeast, dose response, S. cerevisiae AD1-8u, singleplex, Cherry Pick1 hits (AID 588606); assay type: functional
[27] = biological target: Multidrug resistance protein CDR2 (Candida albicans (strain SC5314 / ATCC MYA-2876) (Yeast), UniProt P78595); assay: CaCDR2 efflux pump inhibitors in yeast, dose response, S. cerevisiae AD1-8u, singleplex, Cherry Pick1 hits (AID 588604); assay type: functional
Beta-galactosidase = Beta-galactosidase (Escherichia coli, UniProt Q8VNN2); assay: Dose response counterscreen for EBI2 assay utilizing the enzyme, b-galactosidase.; assay type: functional
[28] = biological target: Benomyl/methotrexate resistance protein (Candida albicans, UniProt P28873); assay: CaMdr1 efflux pump inhibitor potency, dose response, singleplex, Cherry Pick1 hits (AID 588608); assay type: functional
[29] = biological target: Cyclin-dependent kinase 5 (Homo sapiens, UniProt Q00535); assay type: functional;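 further: CDK5 measured as one member of a kinase profiling panel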
[30] = biological target: Tyrosine-protein kinase receptor TYRO3 (Homo sapiens, UniProt Q06418); assay type: functional;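 further: TYRO3 value obtained as one member of a kinome-wide profiling panel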
LIM domain kinase 1 = LIM domain kinase 1 (Homo sapiens, UniProt P53667); assay: Navigating the Kinome. Panel member name: LIMK1; assay type: functional
LIM domain kinase 1, sequence (P53667 whole entry, the tested form may be a part): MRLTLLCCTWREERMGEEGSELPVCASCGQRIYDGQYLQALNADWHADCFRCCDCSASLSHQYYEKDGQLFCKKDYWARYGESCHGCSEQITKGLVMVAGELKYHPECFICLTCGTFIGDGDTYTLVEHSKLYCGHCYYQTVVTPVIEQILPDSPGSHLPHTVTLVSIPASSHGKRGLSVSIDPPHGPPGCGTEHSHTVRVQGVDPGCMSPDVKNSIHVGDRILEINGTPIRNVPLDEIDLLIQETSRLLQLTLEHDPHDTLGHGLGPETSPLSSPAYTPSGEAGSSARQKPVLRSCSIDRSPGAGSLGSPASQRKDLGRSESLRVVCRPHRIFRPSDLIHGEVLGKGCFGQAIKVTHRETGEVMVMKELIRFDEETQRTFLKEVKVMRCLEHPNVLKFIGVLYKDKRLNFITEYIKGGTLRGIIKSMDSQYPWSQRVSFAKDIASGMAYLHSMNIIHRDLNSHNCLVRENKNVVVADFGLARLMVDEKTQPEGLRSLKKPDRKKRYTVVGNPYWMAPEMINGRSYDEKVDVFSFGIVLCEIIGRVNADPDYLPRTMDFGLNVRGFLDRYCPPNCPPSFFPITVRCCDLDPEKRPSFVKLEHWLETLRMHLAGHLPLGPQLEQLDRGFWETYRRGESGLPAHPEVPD

Aurora kinase A = Aurora kinase A (Homo sapiens, UniProt O14965); assay type: functional;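 further: value from the Navigating the Kinome kinase panel profiling, panel entry STK6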
[31] = biological target: cAMP-dependent protein kinase catalytic subunit PRKX (Homo sapiens, UniProt P51817); assay type: functional
[32] = biological target: Dual specificity protein kinase CLK4 (Homo sapiens, UniProt Q9HAZ1); assay type: functional
[33] = biological target: Leukocyte tyrosine kinase receptor (Homo sapiens, UniProt P29376); assay: Navigating the Kinome. Panel member name: LTK; assay type: functional
[34] = biological target: Serine/threonine-protein kinase Nek2 (Homo sapiens, UniProt P51955); assay type: functional
Serine/threonine-protein kinase Nek2, sequence (P51955 whole entry): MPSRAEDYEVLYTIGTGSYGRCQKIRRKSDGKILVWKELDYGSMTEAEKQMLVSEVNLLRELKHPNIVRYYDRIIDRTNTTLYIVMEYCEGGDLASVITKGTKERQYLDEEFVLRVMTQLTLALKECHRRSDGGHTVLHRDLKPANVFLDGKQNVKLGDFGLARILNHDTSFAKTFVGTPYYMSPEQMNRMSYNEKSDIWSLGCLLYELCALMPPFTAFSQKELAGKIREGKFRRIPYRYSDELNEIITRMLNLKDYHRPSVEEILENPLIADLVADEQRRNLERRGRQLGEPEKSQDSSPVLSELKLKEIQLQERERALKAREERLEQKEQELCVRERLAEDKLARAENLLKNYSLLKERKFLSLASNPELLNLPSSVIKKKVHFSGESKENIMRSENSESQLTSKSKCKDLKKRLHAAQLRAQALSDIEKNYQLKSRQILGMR

[35] = biological target: 5'-AMP-activated protein kinase catalytic subunit alpha-1 (Homo sapiens, UniProt Q13131); assay type: functional
[36] = biological target: Platelet-derived growth factor receptor alpha (Homo sapiens, UniProt P16234); assay: Navigating the Kinome. Panel member name: PDGFRA; assay type: functional
Platelet-derived growth factor receptor alpha, sequence (P16234 whole entry): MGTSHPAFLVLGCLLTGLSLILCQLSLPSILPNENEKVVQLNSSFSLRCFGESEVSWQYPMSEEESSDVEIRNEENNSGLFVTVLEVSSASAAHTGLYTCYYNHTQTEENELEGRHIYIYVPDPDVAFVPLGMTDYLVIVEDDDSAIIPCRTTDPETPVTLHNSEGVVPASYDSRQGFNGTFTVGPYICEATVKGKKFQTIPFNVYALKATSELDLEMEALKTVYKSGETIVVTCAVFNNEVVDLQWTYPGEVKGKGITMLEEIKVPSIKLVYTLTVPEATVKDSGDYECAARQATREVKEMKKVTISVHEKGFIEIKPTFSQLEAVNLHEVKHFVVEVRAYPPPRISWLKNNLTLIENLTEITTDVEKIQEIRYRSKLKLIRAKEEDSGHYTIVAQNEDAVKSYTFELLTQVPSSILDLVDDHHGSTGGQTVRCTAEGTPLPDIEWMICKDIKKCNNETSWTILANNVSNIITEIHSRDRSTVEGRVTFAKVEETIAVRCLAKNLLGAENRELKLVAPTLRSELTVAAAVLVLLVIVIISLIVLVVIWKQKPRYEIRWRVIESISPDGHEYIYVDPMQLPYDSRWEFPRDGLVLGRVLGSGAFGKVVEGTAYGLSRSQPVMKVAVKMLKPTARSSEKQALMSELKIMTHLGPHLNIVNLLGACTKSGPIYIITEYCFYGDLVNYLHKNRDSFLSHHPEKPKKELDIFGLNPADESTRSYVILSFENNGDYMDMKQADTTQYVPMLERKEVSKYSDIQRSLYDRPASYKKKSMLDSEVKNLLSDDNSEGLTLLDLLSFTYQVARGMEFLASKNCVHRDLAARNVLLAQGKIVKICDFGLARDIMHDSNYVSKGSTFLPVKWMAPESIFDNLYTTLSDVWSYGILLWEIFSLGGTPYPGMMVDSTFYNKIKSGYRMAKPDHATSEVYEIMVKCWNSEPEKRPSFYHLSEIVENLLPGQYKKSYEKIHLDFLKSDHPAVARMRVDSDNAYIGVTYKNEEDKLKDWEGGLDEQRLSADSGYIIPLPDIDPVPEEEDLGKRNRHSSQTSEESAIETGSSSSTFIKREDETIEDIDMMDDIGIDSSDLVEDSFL

[37] = biological target: Cyclin-dependent kinase 8 (Homo sapiens, UniProt P49336); assay: Navigating the Kinome. Panel member name: CDK8; assay type: functional
Activin receptor type-1 = Activin receptor type-1 (Homo sapiens, UniProt Q04771); assay: Navigating the Kinome. Panel member name: ACVR1; assay type: functional
[38] = biological target: Death-associated protein kinase 3 (Homo sapiens, UniProt O43293); assay type: functional;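 further: measured as one member of a kinome-wide profiling panel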
Death-associated protein kinase 3, sequence (O43293 whole entry): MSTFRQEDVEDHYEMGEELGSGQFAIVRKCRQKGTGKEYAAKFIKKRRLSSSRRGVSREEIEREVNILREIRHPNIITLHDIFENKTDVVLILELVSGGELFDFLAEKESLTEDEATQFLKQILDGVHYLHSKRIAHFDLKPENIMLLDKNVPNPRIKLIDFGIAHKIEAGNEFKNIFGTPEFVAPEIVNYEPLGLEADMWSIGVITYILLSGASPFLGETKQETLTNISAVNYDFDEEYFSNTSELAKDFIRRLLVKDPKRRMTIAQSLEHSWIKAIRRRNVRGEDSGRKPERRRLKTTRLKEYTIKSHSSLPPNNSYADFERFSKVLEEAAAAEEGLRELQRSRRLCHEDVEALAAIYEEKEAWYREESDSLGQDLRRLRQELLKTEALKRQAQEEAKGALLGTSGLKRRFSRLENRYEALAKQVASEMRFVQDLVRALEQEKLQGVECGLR

[39] = biological target: Dual specificity tyrosine-phosphorylation-regulated kinase 1A (Homo sapiens, UniProt Q13627); assay type: functional;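 further: measured against DYRK1A as one member of a broad kinome profiling panel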
[40] = biological target: Dual specificity tyrosine-phosphorylation-regulated kinase 1B (Homo sapiens, UniProt Q9Y463); assay: Navigating the Kinome. Panel member name: DYRK1B; assay type: functional
[41] = biological target: Inhibitor of nuclear factor kappa-B kinase subunit epsilon (Homo sapiens, UniProt Q14164); assay: Navigating the Kinome. Panel member name: IKBKE; assay type: functional
Inhibitor of nuclear factor kappa-B kinase subunit epsilon, sequence (Q14164 whole entry): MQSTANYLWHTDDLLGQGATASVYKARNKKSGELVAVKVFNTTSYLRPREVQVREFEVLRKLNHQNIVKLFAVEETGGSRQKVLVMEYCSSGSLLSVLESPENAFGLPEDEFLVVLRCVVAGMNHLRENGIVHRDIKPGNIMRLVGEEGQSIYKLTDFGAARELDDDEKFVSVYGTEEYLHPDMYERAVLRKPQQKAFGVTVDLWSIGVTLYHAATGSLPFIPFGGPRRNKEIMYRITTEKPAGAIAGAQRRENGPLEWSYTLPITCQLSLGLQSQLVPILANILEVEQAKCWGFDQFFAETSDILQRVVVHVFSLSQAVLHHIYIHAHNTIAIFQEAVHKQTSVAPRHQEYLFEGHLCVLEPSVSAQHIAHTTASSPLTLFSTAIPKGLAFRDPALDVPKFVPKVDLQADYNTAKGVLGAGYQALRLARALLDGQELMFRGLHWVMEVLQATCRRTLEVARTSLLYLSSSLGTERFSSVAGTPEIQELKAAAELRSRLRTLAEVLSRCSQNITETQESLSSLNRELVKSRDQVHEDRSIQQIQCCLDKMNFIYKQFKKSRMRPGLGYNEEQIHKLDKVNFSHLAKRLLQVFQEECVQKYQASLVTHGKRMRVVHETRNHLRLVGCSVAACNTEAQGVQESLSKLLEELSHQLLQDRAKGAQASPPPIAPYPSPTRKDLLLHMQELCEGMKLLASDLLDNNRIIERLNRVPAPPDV

[42] = biological target: Cyclin-dependent kinase 9 (Homo sapiens, UniProt P50750); assay type: functional;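 further: value from the CDK9 entry of a kinome-spanning kinase panel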
Cyclin-dependent kinase 9, sequence (P50750 whole entry): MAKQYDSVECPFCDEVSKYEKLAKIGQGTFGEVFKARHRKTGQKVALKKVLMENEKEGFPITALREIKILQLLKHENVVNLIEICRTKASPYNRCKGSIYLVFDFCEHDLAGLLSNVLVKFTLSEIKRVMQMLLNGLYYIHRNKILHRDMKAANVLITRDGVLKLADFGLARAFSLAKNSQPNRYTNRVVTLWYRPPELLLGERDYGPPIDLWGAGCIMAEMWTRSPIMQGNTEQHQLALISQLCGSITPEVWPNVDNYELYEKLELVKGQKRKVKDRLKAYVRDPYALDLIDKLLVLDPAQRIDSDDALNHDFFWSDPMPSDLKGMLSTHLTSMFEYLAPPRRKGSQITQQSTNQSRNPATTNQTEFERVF

[43] = biological target: Serine/threonine-protein kinase TBK1 (Homo sapiens, UniProt Q9UHD2); assay: Navigating the Kinome. Panel member name: TBK1; assay type: functional
[44] = biological target: Leucine-rich repeat serine/threonine-protein kinase 2 (Homo sapiens, UniProt Q5S007); assay type: functional;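 further: value from a broad kinome-wide panel profiling study in which LRRK2 was one of the kinases tested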
[45] = biological target: Serine/threonine-protein kinase PAK 1 (Homo sapiens, UniProt Q13153); assay type: functional
Serine/threonine-protein kinase PAK 1, sequence (Q13153 whole entry): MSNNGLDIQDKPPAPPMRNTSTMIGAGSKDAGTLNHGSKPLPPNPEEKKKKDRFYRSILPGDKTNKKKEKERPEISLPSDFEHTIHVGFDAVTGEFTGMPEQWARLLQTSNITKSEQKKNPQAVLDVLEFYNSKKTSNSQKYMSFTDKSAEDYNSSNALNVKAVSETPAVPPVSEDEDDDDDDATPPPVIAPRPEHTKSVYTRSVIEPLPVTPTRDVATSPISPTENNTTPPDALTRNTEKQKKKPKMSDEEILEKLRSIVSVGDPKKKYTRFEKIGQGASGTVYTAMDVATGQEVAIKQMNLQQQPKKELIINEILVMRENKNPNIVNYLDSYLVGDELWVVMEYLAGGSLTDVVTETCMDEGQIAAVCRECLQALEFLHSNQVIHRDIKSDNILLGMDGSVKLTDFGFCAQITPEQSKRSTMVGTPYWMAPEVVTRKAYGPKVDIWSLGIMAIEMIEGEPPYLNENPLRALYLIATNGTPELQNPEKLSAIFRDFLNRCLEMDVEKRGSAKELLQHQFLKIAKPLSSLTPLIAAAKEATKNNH

[46] = biological target: Serine/threonine-protein kinase pim-1 (Homo sapiens, UniProt P11309); assay type: functional
Serine/threonine-protein kinase pim-1, sequence (P11309 whole entry): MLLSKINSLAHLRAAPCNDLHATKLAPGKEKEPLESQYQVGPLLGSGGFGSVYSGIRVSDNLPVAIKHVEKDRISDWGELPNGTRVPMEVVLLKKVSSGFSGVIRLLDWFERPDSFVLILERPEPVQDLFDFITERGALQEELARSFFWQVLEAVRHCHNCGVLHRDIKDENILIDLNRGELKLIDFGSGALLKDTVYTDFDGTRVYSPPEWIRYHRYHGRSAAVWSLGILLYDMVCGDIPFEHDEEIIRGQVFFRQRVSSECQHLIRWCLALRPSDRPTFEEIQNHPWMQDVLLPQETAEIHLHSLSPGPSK

[47] = biological target: Serine/threonine-protein kinase DCLK1 (Homo sapiens, UniProt O15075); assay type: functional;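 further: affinity for DCLK1 (listed as DCAMKL1) measured as one member of a kinome-wide kinase profiling panel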
[48] = biological target: Serine/threonine-protein kinase pim-3 (Homo sapiens, UniProt Q86V86); assay type: functional;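 further: value obtained as one member of a broad kinase panel profiling effort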
Aurora kinase B = Aurora kinase B (Homo sapiens, UniProt Q96GD4); assay type: functional
Aurora kinase B, sequence (Q96GD4 whole entry): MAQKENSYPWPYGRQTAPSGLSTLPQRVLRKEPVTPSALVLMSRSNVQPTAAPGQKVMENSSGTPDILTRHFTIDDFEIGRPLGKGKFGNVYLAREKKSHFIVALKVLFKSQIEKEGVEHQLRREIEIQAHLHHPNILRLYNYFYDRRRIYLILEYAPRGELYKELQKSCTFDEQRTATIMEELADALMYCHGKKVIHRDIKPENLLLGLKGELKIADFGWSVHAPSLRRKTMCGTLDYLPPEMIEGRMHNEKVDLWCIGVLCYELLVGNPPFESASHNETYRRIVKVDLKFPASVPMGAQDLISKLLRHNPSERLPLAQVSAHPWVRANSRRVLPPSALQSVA

[49] = biological target: Receptor-type tyrosine-protein kinase FLT3 (Homo sapiens, UniProt P36888); assay type: functional;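 further: FLT3 was tested as one member of a kinome-wide kinase panel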
[50] = biological target: Interleukin-1 receptor-associated kinase 4 (Homo sapiens, UniProt Q9NWZ3); assay type: functional
[51] = biological target: Serine/threonine-protein kinase MRCK alpha (Homo sapiens, UniProt Q5VT25); assay type: functional
[52] = biological target: MAP kinase-interacting serine/threonine-protein kinase 2 (Homo sapiens, UniProt Q9HBH9); assay type: functional
[53] = biological target: RAC-gamma serine/threonine-protein kinase (Homo sapiens, UniProt Q9Y243); assay type: functional
[54] = biological target: Serine/threonine-protein kinase BRSK1 (Homo sapiens, UniProt Q8TDC3); assay type: functional;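 further: measured within a kinome-wide kinase panel, with the target listed as KIAA1811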

COc1ccc(/C=C2\CN(Cc3ccccc3)C/C(=C\c3ccc(OC)c(O)c3)C2=O)cc1O
IC50 (Vero [1]): 23.2 µM (active) | EC50 [2]: 2.65 µM (active) | AC50 (INS1): 4.23 µM (active) | EC50 (BJ [3]): 0.435 µM (active) | AC50 [4]: 5.24 µM (active) | AC50 [5]: 4.93 µM (active) | AC50 [6]: 12.5 µM (active) | EC50 [7]: 8.62 µM (inconclusive) | AC50 [8]: 14.3 µM (active) | AC50 [9]: 7.31 µM (active) | AC50 [10]: 2.98 µM (active) | EC50 [11]: 9.23 µM (inconclusive) | EC50 [12]: > 120 µM (not active) | CC50 (Vero [13]): 2.75 µM (active) | AC50 [14]: 14.2 µM (active) | AC50 [15]: 4.34 µM (active) | AC50 [16]: 4.16 µM (active) | EC50 (BJ [17]): 2.04 µM (active) | EC50 [18]: 8.35 µM (active) | AC50 [19]: 3.79 µM (active) | EC50 (BJ [20]): 4.4 µM (active) | AC50 [21]: 21.6 µM (active) | EC50 (BJ [22]): 2.23 µM (active) | IC50 [23]: 5.53 µM (active) | AC50 [24]: 8.94 µM (active) | AC50 [25]: 9.32 µM (active) | AC50 (Paired box protein Pax-8): 4.63 µM (active)

O=C1C(Cc2ccccc2)Nc2ncnc(N3CCN(c4ccccc4)CC3)c2N1Cc1ccc(Br)cc1 (configuration not stated)
EC50 [26]: 11.1 µM (active) | EC50 [27]: 10.8 µM (active) | IC50 (Beta-galactosidase): 2.54 µM (active) | EC50 [28]: 21.2 µM (active)

Cc1cc(=O)[nH]c2[nH]n(-c3ccccc3)c(=O)c12
Ki [29]: 50.1 µM (active) | Ki [30]: 50.1 µM (active) | Ki (LIM domain kinase 1): 12.6 µM (active) | Ki (Aurora kinase A): 50.1 µM (active) | Ki [31]: 63.1 µM (active) | Ki [32]: 10 µM (active) | Ki [33]: 20 µM (active) | Ki [34]: 50.1 µM (active) | Ki [35]: 79.4 µM (active) | Ki [36]: 100 µM (active) | Ki [37]: 39.8 µM (active) | Ki (Activin receptor type-1): 79.4 µM (active) | Ki [38]: 63.1 µM (active) | Ki [39]: 20 µM (active) | Ki [40]: 12.6 µM (active) | Ki [41]: 50.1 µM (active) | Ki [42]: 39.8 µM (active) | Ki [43]: 50.1 µM (active) | Ki [44]: 39.8 µM (active)

NC(=O)c1cccc2[nH]c(-c3cccc(NCCN4CCCC4)n3)nc12
Ki [45]: > 10 µM (inactive) | Ki [46]: 2 µM (active) | Ki [47]: > 10 µM (inactive) | Ki [48]: 1 µM (active) | Ki (LIM domain kinase 1): > 10 µM (inactive) | Ki (Aurora kinase B): 1.26 µM (active) | Ki [49]: 1.26 µM (active) | Ki [50]: > 10 µM (inactive) | Ki [51]: > 10 µM (inactive) | Ki [52]: 2.51 µM (active) | Ki [53]: > 10 µM (inactive) | Ki [54]: 5.01 µM (active)
